Results published in US9512139B2, “Conformationally constrained, fully synthetic macrocyclic compounds” (POLYPHOR AG, priority 2009, dated 2016).

Target: T1, Prostaglandin F (FP) Receptor (Homo sapiens, UniProt P43088)
T1 construct: host or cells: Ca2+ optimized hematopoietic cell lines (rat)
Assay: Ca2+ assay (FLIPR) for the GPCR prostaglandin F (FP) receptor, agonist and antagonist mode
Format: cell-based
Description: Biological and Pharmacological Methods 1. Ca^2+ Assays for the GPCRs Motilin Receptor, Prostaglandin F (FP) Receptor, 5-hydroxytryptamine 2B (5-HT2B) Receptor, and Purinoreceptor P2Y1
Assays were performed using on a FLIPR^TETRA fluorometric imaging plate reader (Molecular Devices) with ScreenWorks Version 2 (Molecular Devices) as device operating and data analysis software.
Dose dependent agonist and antagonist activities were determined. Percentage activation and percentage inhibition values were determined.
Percentage activation was determined upon initial addition of the sample compounds followed by 10 minutes incubation at 25° C. Following compound incubation, reference agonists were added at EC80 to determine percentage inhibition.
Reference agonists were purchased from reputable commercial vendors and prepared according to each ligand's specifications. All handling of ligands were done to ensure proper control throughout the experiments.
Example compounds were weighed on a Microbalance (Mettler MX5) and dissolved in 100% DMSO to a final concentration of 2.5 mM and subsequently diluted into the assay buffer.
The Assay buffer was a supplemented HBSS (Hank's Balanced Salt Solution). HBSS was supplemented with 20 mM HEPES (4-(2-hydroxyethyl)-piperazin-1-ethansulfonic acid) and 2.5 mM Probenecid (Sigma P8761).
GPCR assays were performed using Ca^2+ optimized hematopoietic cell lines (rat) with cultures never exceeding 90% confluency. Cells were harvested and seeded (from cultures at less than 90% confluency) at 50000 cells/well for a 96-well plate (12500 cells/well for 384). After seeding, the assay plates were incubated for forty-five (45) minutes at room temperature. After room temperature incubation, the assay plates were incubated at 37° C. 5% CO2 for 24 hours prior to assaying.
All GPCR assays were performed using Fluo-8 Ca^2+ dye. Ca^2+ dye was prepared at 1× dye concentration in GPCR assay buffer. After 24 hours of incubation, cells were washed with GPCR assay buffer, and then Ca^2+-dye (100 μL/well) was added.
The plates were incubated for 90 minutes at 30° C. 5% CO2 prior to FLIPR assay.
Compound plates were prepared to add 50 μL/well during the agonist assay mode. During the FLIPR assay, 50 μL/well from the compound plate was diluted 3-fold into the existing 100 μL/well from the dye loading step. Therefore all compounds were prepared as 3× the final concentration desired in the assay.
After completion of the first single addition assay run, assay plate was removed from the FLIPR Tetra and placed at 25° C. for seven (7) minutes before antagonist assay.
Using the EC80 values determined during the agonist assay, all pre-incubated sample compound and reference antagonist (if applicable) wells were stimulated at the EC80 of the reference agonist. As reference ligands for the first three assays their obvious natural ligands motilin, prostaglandin F2α, and serotonin (5-HT, 5-Hydroxytryptamine) were used; and for the P2Y1 assay 2MeSATP (2-methyl-thio-adeno-sine 5′-triphosphate, i.e. (2R,3S,4R)-5-(6-amino-2-methylsulfanyl-purin-9-yl)-3,4-dihydroxy-tetrahydrofuran-2-yl]methyl (hydroxy-phosphonooxy-phosphoryl)hydrogen phosphate) was applied.
After the addition of the reference agonist fluorescence was monitored for 180 sec using FLIPR Tetra.
Data Analysis and Results:
From the FLIPR data, with negative control correction enabled, the maximum statistic for each well was exported and percentage activation relative to Emax control was calculated.

T1 sequence (P43088 whole entry): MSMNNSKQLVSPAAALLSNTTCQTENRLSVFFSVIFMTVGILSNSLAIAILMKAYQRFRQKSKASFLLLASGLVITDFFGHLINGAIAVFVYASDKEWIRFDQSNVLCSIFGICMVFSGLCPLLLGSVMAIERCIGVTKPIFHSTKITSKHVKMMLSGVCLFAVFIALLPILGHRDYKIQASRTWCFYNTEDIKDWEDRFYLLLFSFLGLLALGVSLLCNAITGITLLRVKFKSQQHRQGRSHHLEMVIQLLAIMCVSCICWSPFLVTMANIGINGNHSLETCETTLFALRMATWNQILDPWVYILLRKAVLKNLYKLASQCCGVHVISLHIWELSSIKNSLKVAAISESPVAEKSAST

Row | Structure (SMILES) | IC50 [nM] | inhibition at 10 µM [%]
1 | CN1CCC[C@H](NC(=O)C(c2ccccc2)c2ccccc2)C(=O)N2C[C@@H](NC(=O)Cc3ccc(-c4ccccc4)cc3)C[C@H]2COc2cccc(c2)C1=O [Ex. 547, N-[(4S,6S,10S)-6-[(2-[1,1′-biphenyl]-4-ylacetyl)amino]-14-methyl-9,15-dioxo-2-oxa-8,14-diazatricyclo[14.3.1.0^4,8]icosa-1(20),16,18-trien-10-yl]-2,2-diphenylacetamide] | – | 47
2 | CN1CCC[C@H](NC(=O)CCCCCc2ccccc2)C(=O)N2C[C@@H](NC(=O)CCCCCOCc3ccccc3)C[C@H]2COc2cccc(c2)C1=O [Ex. 524, 6-(benzyloxy)-N-[(4S,6S,10S)-14-methyl-9,15-dioxo-10-[(6-phenylhexanoyl)amino]-2-oxa-8,14-diazatricyclo[14.3.1.0^4,8]icosa-1(20),16,18-trien-6-yl]hexanamide] | 1700 | 85
3 | CN1CCC[C@H](NC(=O)CCCCCOCc2ccccc2)C(=O)N2C[C@@H](NC(=O)Cc3ccc4ccccc4c3)C[C@H]2COc2cccc(c2)C1=O [Ex. 521, 6-(benzyloxy)-N-[(4S,6S,10S)-14-methyl-6-{[2-(2-naphthyl)acetyl]amino}-9,15-dioxo-2-oxa-8,14-diazatricyclo[14.3.1.0^4,8]icosa-1(20),16,18-trien-10-yl]hexanamide] | 1000 | 81
4 | CN1CCC[C@H](NC(=O)CC(C)(C)C)C(=O)N2C[C@@H](NC(=O)Nc3cccc(N(C)C)c3)C[C@H]2COc2cccc(c2)C1=O [Ex. 552, N-[(4S,6S,10S)-6-({[3-(dimethylamino)anilino]carbonyl}amino)-14-methyl-9,15-dioxo-2-oxa-8,14-diazatricyclo[14.3.1.0^4,8]icosa-1(20),16,18-trien-10-yl]-3,3-dimethylbutanamide] | – | 71
5 | CN1CCC[C@H](NC(=O)Cc2ccc3ccccc3c2)C(=O)N2C[C@@H](NC(=O)Oc3ccccc3)C[C@H]2COc2cccc(c2)C1=O [Ex. 539, phenyl N-[(4S,6S,10S)-14-methyl-10-{[2-(2-naphthyl)acetyl]amino}-9,15-dioxo-2-oxa-8,14-diazatricyclo[14.3.1.0^4,8]icosa-1(20),16,18-trien-6-yl]carbamate] | – | 59
6 | CCCCCCCCCC(=O)N[C@H]1CCCN(C)C(=O)c2cccc(c2)OC[C@@H]2C[C@H](NC(=O)Cc3cccc4ccccc34)CN2C1=O [Ex. 519, N-[(4S,6S,10S)-14-methyl-6-{[2-(1-naphthyl)acetyl]amino}-9,15-dioxo-2-oxa-8,14-diazatricyclo[14.3.1.0^4,8]icosa-1(20),16,18-trien-10-yl]decanamide] | 3000 | –
7 | CCCCCCCCCC(=O)N[C@H]1CCCN(C)C(=O)c2cccc(c2)OC[C@@H]2C[C@H](NC(=O)CC(c3ccccc3)c3ccccc3)CN2C1=O [Ex. 550, N-[(4S,6S,10S)-6-[(3,3-diphenylpropanoyl)amino]-14-methyl-9,15-dioxo-2-oxa-8,14-diazatricyclo[14.3.1.0^4,8]icosa-1(20),16,18-trien-10-yl]decanamide] | – | 73
8 | CN1CCC[C@H](NC(=O)CC(c2ccccc2)c2ccccc2)C(=O)N2C[C@@H](NC(=O)Cc3ccc4ccccc4c3)C[C@H]2COc2cccc(c2)C1=O [Ex. 523, N-[(4S,6S,10S)-14-methyl-6-{[2-(2-naphthyl)acetyl]amino}-9,15-dioxo-2-oxa-8,14-diazatricyclo[14.3.1.0^4,8]icosa-1(20),16,18-trien-10-yl]-3,3-diphenylpropanamide] | 860 | 92
9 | CCCCCCCCCC(=O)N[C@H]1CCCN(C)C(=O)c2cccc(c2)OC[C@@H]2C[C@H](NC(=O)c3cccc(N4CCOCC4)c3)CN2C1=O [Ex. 510, N-[(4S,6S,10S)-14-methyl-6-[(3-morpholinobenzoyl)amino]-9,15-dioxo-2-oxa-8,14-diazatricyclo[14.3.1.0^4,8]icosa-1(20),16,18-trien-10-yl]decanamide] | 1500 | 42
10 | CN(C)c1cccc(NC(=O)N[C@H]2C[C@H]3COc4cccc(c4)C(=O)NCCC[C@H](NC(=O)Cc4ccc5ccccc5c4)C(=O)N3C2)c1 [Ex. 386, N-[(4S,6S,10S)-6-({[3-(dimethylamino)anilino]carbonyl}amino)-9,15-dioxo-2-oxa-8,14-diazatricyclo[14.3.1.0^4,8]icosa-1(20),16,18-trien-10-yl]-2-(2-naphthyl)acetamide] | 2700 | 85
11 | CN1CCC[C@H](NC(=O)Cc2cccc3ccccc23)C(=O)N2C[C@@H](NC(=O)Cc3ccc(-c4ccccc4)cc3)C[C@H]2COc2cccc(c2)C1=O [Ex. 545, 2-[1,1′-biphenyl]-4-yl-N-[(4S,6S,10S)-14-methyl-10-{[2-(1-naphthyl)acetyl]amino}-9,15-dioxo-2-oxa-8,14-diazatricyclo[14.3.1.0^4,8]icosa-1(20),16,18-trien-6-yl]acetamide] | – | 80

Results, then the compound that gave them:

Row | IC50 [nM] | inhibition at 10 µM [%] | Structure (SMILES)
12 | 490 | 80 | CCCCCC/C=C/CC(=O)N[C@H]1CCCN(C)C(=O)c2cccc(c2)OC[C@@H]2C[C@H](NC(=O)Cc3ccc4ccccc4c3)CN2C1=O [Ex. 518, (E)-N-[(4S,6S,10S)-14-methyl-6-{[2-(2-naphthyl)acetyl]amino}-9,15-dioxo-2-oxa-8,14-diazatricyclo[14.3.1.0^4,8]icosa-1(20),16,18-trien-10-yl]-3-decenamide]
13 | 441 | 62 | CCCCCCCCCC(=O)N[C@H]1CCCN(C)C(=O)c2cccc(c2)OC[C@@H]2C[C@H](NC(=O)Cc3ccc4ccccc4c3)CN2C1=O [Ex. 504, N-[(4S,6S,10S)-14-methyl-6-{[2-(2-naphthyl)acetyl]amino}-9,15-dioxo-2-oxa-8,14-diazatricyclo[14.3.1.0^4,8]icosa-1(20),16,18-trien-10-yl]decanamide]
14 | 320 | 99 | O=C(Cc1ccc2ccccc2c1)N[C@H]1C[C@H]2COc3cccc(c3)C(=O)NCCC[C@H](NC(=O)OCc3ccccc3)C(=O)N2C1 [Ex. 388, benzyl N-[(4S,6S,10S)-6-{[2-(2-naphthyl)acetyl]amino}-9,15-dioxo-2-oxa-8,14-diazatricyclo[14.3.1.0^4,8]icosa-1(20),16,18-trien-10-yl]carbamate]
15 | 250 | 93 | CCCCCCCCCC(=O)N[C@H]1CCCNC(=O)c2cccc(c2)OC[C@@H]2C[C@H](NC(=O)Cc3ccc4ccccc4c3)CN2C1=O [Ex. 391, N-[(4S,6S,10S)-6-{[2-(2-naphthyl)acetyl]amino}-9,15-dioxo-2-oxa-8,14-diazatricyclo[14.3.1.0^4,8]icosa-1(20),16,18-trien-10-yl]decanamide]
16 | 180 | 99 | CN1CCC[C@H](NC(=O)Cc2ccc(-c3ccccc3)cc2)C(=O)N2C[C@@H](NC(=O)Nc3cccc(N(C)C)c3)C[C@H]2COc2cccc(c2)C1=O [Ex. 526, 2-[1,1′-biphenyl]-4-yl-N-[(4S,6S,10S)-6-({[3-(dimethylamino)anilino]carbonyl}amino)-14-methyl-9,15-dioxo-2-oxa-8,14-diazatricyclo[14.3.1.0^4,8]icosa-1(20),16,18-trien-10-yl]acetamide]
17 | 430 | 93 | CN1CCC[C@H](NC(=O)Cc2ccc3ccccc3c2)C(=O)N2C[C@@H](NC(=O)Nc3cccc(N(C)C)c3)C[C@H]2COc2cccc(c2)C1=O [Ex. 508, N-[(4S,6S,10S)-6-({[3-(dimethylamino)anilino]carbonyl}amino)-14-methyl-9,15-dioxo-2-oxa-8,14-diazatricyclo[14.3.1.0^4,8]icosa-1(20),16,18-trien-10-yl]-2-(2-naphthyl)acetamide]
18 | 650 | 95 | COc1cccc(NC(=O)N[C@H]2C[C@H]3COc4cccc(c4)C(=O)N(C)CCC[C@H](NC(=O)Cc4ccc5ccccc5c4)C(=O)N3C2)c1 [Ex. 513, N-[(4S,6S,10S)-6-{[(3-methoxyanilino)carbonyl]amino}-14-methyl-9,15-dioxo-2-oxa-8,14-diazatricyclo[14.3.1.0^4,8]icosa-1(20),16,18-trien-10-yl]-2-(2-naphthyl)acetamide]
